Experimental findings from paper PMC12276035, “Novel Para‐Phenylenediamine‐Based Derivatives as Receptor Tyrosine Kinase‐like Orphan Receptor 1 (ROR1) Inhibitors: An In Vitro Preliminary Characterization” (Chemmedchem, 2025) are described below.

As a reminder, the Kd is the free concentration of one partner at which half of the binding sites on the other are occupied at equilibrium, for simple one-to-one binding.

SMILES strings stand for the structures.

The test system of assay [1] is ROR1 pathways in JeKo‐1 cells. The experiment in a line: Western blotting of ROR1 pathway. The assay is classed as cell-based, human. Conditions: western blot. The source says:
This time‐dependent reduction in P‐ROR1 is particularly significant, as it represents the upstream event that drives the observed proapoptotic downstream effects. […] Indeed, activation of ROR1 initiates the nonclassical Wnt (PI3K/AKT/mTOR) pathway and upregulates the phosphorylation level of AKT, which contributes to the survival and proliferation of cancer cells.^[ [25] ^]
Figure 6 Molecular effects of 17 on ROR1 pathways in JeKo‐1 cells. For each western blotting analysis, three independent experiments were performed, and the SD is expressed by error bars. The relative fold change versus untreated cells, set as 1, is shown in the graph. *, **, and *** denote respectively p < 0.05, p < 0.01, and p < 0.001 versus Ctrl.
JeKo‐1 cells (2.5 × 10^6 cells/well) were seeded in a T‐75 flask, treated with compound 17 (10 μM) for different times (4, 8, and 24 h). After treatments, cells were washed twice with PBS and detached with a scraper, centrifuged at 655 g × 10 min at 4 °C. Full proteins were extracted by lysis buffer (20 mM Tris‐HCl pH 7.5, 150 mM NaCl, 1 mM Na2EDTA, 1 mM EGTA, 2% NP‐40, 1% sodium deoxycholate, 1× protease and phosphatase inhibitor cocktail) for 30 min. Then, cell lysates were centrifuged at 4850 g for 20 min at 4 °C. 60 μg of total proteins were run on 8% SDS‐PAGE and transferred to nitrocellulose membranes using a minigel apparatus (Bio‐Rad Laboratories, Hercules, CA, USA). Blots were blocked in phosphate‐buffered saline, containing Tween‐20 0.1% and 5% BSA for 1 h at room temperature and incubated overnight with specific primary antibodies at 4 °C with slight agitation. α‐Tubulin was used as the loading control. […] Antigen‐antibody complexes were detected by enhanced chemiluminescence (ECL kit, Amersham, Germany). […]

The target of assay [2] is T1, ROR1 kinase domain (Homo sapiens, UniProt Q01973).
T1 construct: recombinant human ROR1 protein (aa 453‐783, His&GST Tag); His; GST; purchased Elabscience
T1 sequence (Q01973 453-783): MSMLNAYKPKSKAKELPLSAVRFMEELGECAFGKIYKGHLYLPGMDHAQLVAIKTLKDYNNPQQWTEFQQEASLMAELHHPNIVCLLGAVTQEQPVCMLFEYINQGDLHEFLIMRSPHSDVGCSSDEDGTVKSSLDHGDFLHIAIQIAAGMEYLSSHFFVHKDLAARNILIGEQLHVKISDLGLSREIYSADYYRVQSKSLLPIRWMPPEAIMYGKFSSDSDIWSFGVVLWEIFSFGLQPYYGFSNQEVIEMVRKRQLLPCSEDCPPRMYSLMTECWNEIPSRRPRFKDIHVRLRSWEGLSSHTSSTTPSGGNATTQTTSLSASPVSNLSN
Nature of the assay: SPR assay on ROR1 kinase domain. The note with it: SPR, KD ± SD, 0 to 100 μM, 25 °C; n.b. = no binding; read-out: Kinase domain KD. The assay is classed as binding. Here is the method:
We performed molecular docking experiments to explore the binding mode of novel derivatives using the crystallographic structure of the protein co‐complexed with ponatinib, a known inhibitor of ROR1 (PDB code: 6TU9).^[ [30] ^] […] To evaluate the affinity of the synthesized molecules (10, 13, 14, 17–21, 26–29) for the protein counterpart, SPR assay was performed against kinase domain ROR1. Protein immobilization was achieved using the amide coupling method, and the molecules were tested at 10 different concentrations, ranging from 0 to 100 μM. Ponatinib was used as a positive control^[ [30] ^] (Table 1 ).
SPR spectroscopy analyses were conducted to evaluate the binding affinity of the synthesized compounds against ROR1 receptor using a Biacore T200 optical biosensor equipped with research‐grade CM5 sensor chips (Cytiva, Marlborough, USA). ROR1 kinase domain was immobilized on the CM5 sensor chip surface following standard amine‐coupling protocols. Specifically, kinasic domain was immobilized at pH 4.5 10 mM CH3COONa using a flow rate of 10 μL min^−1, achieving a density of around 20 kRU.
For the experiments, surfaces of ROR1, along with an unmodified reference surface, were prepared for simultaneous analyses. […] The compounds were injected in a series of concentrations (1:2 dilution, 10 different concentrations), spanning from 0 to 100 μM. The concentration series were prepared in 96‐well plates. SPR experiments were conducted at 25 °C, with a flow rate of 20 μL min^−1, allowing for 90 s of association monitoring and 400 s of dissociation monitoring. Changes in mass, reflective of the binding response, were recorded as resonance units (RU). K D values were determined using the Biaevaluation software performing a global fit of the double‐referenced association and dissociation data to a 1:1 interaction model^[ [43] ^] (see Figure S38, Supporting Information).
(SPR reads the build-up and loss of mass on a sensor chip optically.)

Consider `O=C(NCc1ccc(-c2ccccc2)cc1)Nc1ccc(NCC2CCNCC2)cc1C(F)(F)F` [Compound 17], for which, in assay [1] (JeKo‐1, 10 μM, 4, 8 and 24 h), the AKT phosphorylation result is on record as “significant decrease” and the ROR1 phosphorylation entry is recorded as “marked reduction”. Moreover, the “total ROR1 protein levels” value in assay [1] (JeKo‐1, 10 μM, 24 h) was “increase”. Moreover, the Kd in assay [2] was 12.1 ± 2.68 µM.
